Experimental data taken from a compilation of properties of binary mixtures (doi:10.1016/j.jct.2022.106952).

Experiment: xn = mol fraction of the nth substance listed
Conditions: 101.3 kPa

CCCC[n+]1ccn(C)c1.F[P-](F)(F)(F)(F)F + CCCCCCCCN1CCCC1=O
speed of sound (308.15 K, x1 = 1): 1419.8 m/s
speed of sound (313.15 K, x1 = 1): 1408.2 m/s
speed of sound (318.15 K, x1 = 1): 1396.8 m/s
speed of sound (323.15 K, x1 = 1): 1385.6 m/s

CCCCCCCCN1CCCC1=O + CCCC[n+]1ccn(C)c1.F[P-](F)(F)(F)(F)F
speed of sound (303.15 K, x2 = 0): 1433.6 m/s
speed of sound (303.15 K, x2 = 0.0531): 1430 m/s
speed of sound (303.15 K, x2 = 0.1034): 1425.4 m/s
speed of sound (303.15 K, x2 = 0.1513): 1421.4 m/s
speed of sound (303.15 K, x2 = 0.2034): 1417.6 m/s
speed of sound (303.15 K, x2 = 0.3009): 1412.1 m/s
speed of sound (303.15 K, x2 = 0.5996): 1407.7 m/s
speed of sound (303.15 K, x2 = 0.6991): 1410.4 m/s
speed of sound (303.15 K, x2 = 0.8029): 1415.4 m/s
speed of sound (303.15 K, x2 = 0.8927): 1421.5 m/s
speed of sound (303.15 K, x2 = 0.9513): 1426.6 m/s
speed of sound (308.15 K, x2 = 0): 1416.3 m/s
speed of sound (308.15 K, x2 = 0.0531): 1413.2 m/s
speed of sound (308.15 K, x2 = 0.1034): 1408.9 m/s
speed of sound (308.15 K, x2 = 0.1513): 1405.2 m/s
speed of sound (308.15 K, x2 = 0.2034): 1401.8 m/s
speed of sound (308.15 K, x2 = 0.405): 1393.9 m/s
speed of sound (308.15 K, x2 = 0.5042): 1393.1 m/s
speed of sound (308.15 K, x2 = 0.6991): 1397.4 m/s
speed of sound (308.15 K, x2 = 0.8029): 1402.9 m/s
speed of sound (308.15 K, x2 = 0.8451): 1405.7 m/s
speed of sound (308.15 K, x2 = 0.8927): 1409.4 m/s
speed of sound (308.15 K, x2 = 0.9513): 1414.7 m/s
speed of sound (313.15 K, x2 = 0): 1399.1 m/s
speed of sound (313.15 K, x2 = 0.0531): 1396.4 m/s
speed of sound (313.15 K, x2 = 0.1034): 1392.5 m/s
speed of sound (313.15 K, x2 = 0.1513): 1389.2 m/s
speed of sound (313.15 K, x2 = 0.2034): 1386.2 m/s
speed of sound (313.15 K, x2 = 0.3009): 1382 m/s
speed of sound (313.15 K, x2 = 0.405): 1379.6 m/s
speed of sound (313.15 K, x2 = 0.5042): 1379.4 m/s
speed of sound (313.15 K, x2 = 0.6991): 1384.6 m/s
speed of sound (313.15 K, x2 = 0.8029): 1390.6 m/s
speed of sound (313.15 K, x2 = 0.8927): 1397.5 m/s
speed of sound (313.15 K, x2 = 0.9513): 1403 m/s
speed of sound (318.15 K, x2 = 0): 1382.1 m/s
speed of sound (318.15 K, x2 = 0.0531): 1379.8 m/s
speed of sound (318.15 K, x2 = 0.1034): 1376.3 m/s
speed of sound (318.15 K, x2 = 0.1513): 1373.3 m/s
speed of sound (318.15 K, x2 = 0.2034): 1370.7 m/s
speed of sound (318.15 K, x2 = 0.3009): 1367.1 m/s
speed of sound (318.15 K, x2 = 0.405): 1365.4 m/s
speed of sound (318.15 K, x2 = 0.5042): 1365.8 m/s
speed of sound (318.15 K, x2 = 0.5996): 1367.9 m/s
speed of sound (318.15 K, x2 = 0.6991): 1372.1 m/s
speed of sound (318.15 K, x2 = 0.8451): 1381.7 m/s
speed of sound (318.15 K, x2 = 0.9513): 1391.4 m/s
speed of sound (323.15 K, x2 = 0): 1365.2 m/s
speed of sound (323.15 K, x2 = 0.0531): 1363.3 m/s
speed of sound (323.15 K, x2 = 0.1034): 1360.2 m/s
speed of sound (323.15 K, x2 = 0.2034): 1355.3 m/s
speed of sound (323.15 K, x2 = 0.3009): 1352.4 m/s
speed of sound (323.15 K, x2 = 0.405): 1351.4 m/s
speed of sound (323.15 K, x2 = 0.5042): 1352.3 m/s
speed of sound (323.15 K, x2 = 0.6991): 1359.6 m/s
speed of sound (323.15 K, x2 = 0.8029): 1366.5 m/s
speed of sound (323.15 K, x2 = 0.8451): 1369.9 m/s
speed of sound (323.15 K, x2 = 0.8927): 1374.2 m/s
speed of sound (323.15 K, x2 = 0.9513): 1380.1 m/s
